Measured values published in patent publication US20240374590A1, “COMPOSITIONS AND METHODS FOR TREATING CANCER” (A2A PHARMACEUTICALS, INC., priority 2021, published 2024).

Legend:
[1] = system: HCT-116 human colon carcinoma cell line; experiment: Cell viability assay (SRB) in HCT-116; type: cell-based; conditions: 72 hours after treatment, read-out: HCT116 IC50
Outline: (§1)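 JIMT-1 (3×10^3 cells/well) and HCT-116 (4×10^3 cells/well) cells were seeded and treated with inhibitors at several concentrations 24 h later. Viability was read by sulforhodamine B staining 72 h after treatment. JIMT-1 was grown in DMEM and HCT-116 in McCoy's 5A, both with FBS.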

[2] = system: JIMT-1 human breast cancer cell line; experiment: Cell viability assay (SRB) in JIMT-1; type: cell-based; conditions: 72 hours after treatment, read-out: JIMT1 IC50
Outline: as §1

[3] = system: RKO xenograft; experiment: RKO colon cancer xenograft tumor growth in nude mice; type: in vivo, mouse; conditions: female athymic nude mice
Protocol: Six-to-eight-week-old female athymic nude mice were housed with a temperature-controlled and 12-hour light/12-hour dark cycle environment. For in vivo colon cancer tumor growth, 1×10^6 RKO cells were prepared in 100 μL of DMEM and injected into right flank of female nude mice. Mouse weight and tumor volume were measured twice a week. Tumor volumes were calculated as length×width^2×0.5. Once the tumor volume had reached about 100 mm^3, xenografts were randomized into groups (5 mice per group). Animals were treated with vehicle and Compound 129b. The formulation for vehicle and Compound 129b was 50% PEG400 and 20% Cremophor RH40 final (50% of 40% Cremophor) in Acetate buffer, PH=4. The mouse were sacrificed after 4 weeks or if the tumors reached a predefined tumor volume cut-off of 2500 mm^3. […] For instance, at the highest does, a TGI of at least 80% was observed (FIG. 1). PGP-71

[4] = system: CT-26 xenografts; experiment: CT-26 mouse colon xenograft model; type: in vivo; conditions: CT-26 xenograft, female Balb/c mice; 15, 25, 50 mpk QD, 5 mpk IV BIW, 5 mpk IP QD
Protocol: Compound 129b was also tested in CT-26 mouse colon xenograft models. For CT-26 xenografts 5×10^5 CT-26 cells in 100 μL was injected in the right flank of six-to-eight-week-old female Balb/c mice. When the tumor volume reached mean of ˜100 mm^3, mice were randomized in a group of 5 and treatment was initiated vehicle, 15 mpk QD, 25 mpk QD, 50 mpk QD, 5 mpk IV BIW, and 5 mpk IP QD of Compound 129b.

Row | SMILES | IC50 [1] | IC50 [2] | tumor growth inhibition (in words) ([3]; 100 mg/kg PO QD/BID/TID) | TGI ([3]; highest dose (100 mg/kg PO TID, 28 days)) | tumor growth inhibition or regression (in words) [4]
1 | COc1ccc(-c2cc(Nc3ccnc(N4C[C@@H](C)O[C@@H](C)C4)n3)[nH]n2)c(F)c1 [Compound 129b, 2-((2R,6S)-2,6-dimethylmorpholino)-N-(3-(2-fluoro-4-methoxyphenyl)-1H-pyrazol-5-yl)pyrimidin-4-amine] | 34 nM | 3 nM | strong tumor growth inhibition | at least 80% | Strong and statistically significant tumor growth inhibition or regression
2 | COc1ccc(-c2cc(Nc3ccnc(N4C(C)COCC4C)n3)[nH]n2)c(F)c1 (stereo not drawn) [Compound 136, 2-(3,5-dimethylmorpholino)-N-(3-(2-fluoro-4-methoxyphenyl)-1H-pyrazol-5-yl)pyrimidin-4-amine] | 1300 nM | 895 nM | – | – | –
3 | COc1ccc(-c2cc(Nc3ccnc(N4CCC5(CC4)CC5)n3)[nH]n2)c(F)c1 [Compound 144, N-(3-(2-fluoro-4-methoxyphenyl)-1H-pyrazol-5-yl)-2-(6-azaspiro[2.5]octan-6-yl)pyrimidin-4-amine] | 330 nM | 119 nM | – | – | –
4 | COc1ccc(-c2cc(Nc3ccnc(N4CCOCC4C)n3)[nH]n2)c(F)c1 (stereo not drawn) [Compound 138, N-(3-(2-fluoro-4-methoxyphenyl)-1H-pyrazol-5-yl)-2-(3-methylmorpholino)pyrimidin-4-amine] | 52 nM | 15 nM | – | – | –
5 | COc1ccc(-c2cc(Nc3ccnc(N4C[C@@H](C)O[C@@H](C)C4)n3)[nH]n2)cc1C(F)(F)F [Compound 207, 2-((2R,6S)-2,6-dimethylmorpholino)-N-(3-(4-methoxy-3-(trifluoromethyl)phenyl)-1H-pyrazol-5-yl)pyrimidin-4-amine] | 5530 nM | 974 nM | – | – | –
6 | C[C@@H]1CN(c2ncc(Cl)c(Nc3cc(-c4ccc(OC(F)F)cc4)n[nH]3)n2)C[C@H](C)O1 [Compound 288, 5-chloro-N-(3-(4-(difluoromethoxy)phenyl)-1H-pyrazol-5-yl)-2-((2R,6S)-2,6-dimethylmorpholino)pyrimidin-4-amine] | 456 nM | 443 nM | – | – | –
7 | COc1ccc(-c2n[nH]c(Nc3ccnc(N4CCOCC4)n3)c2C)cc1 [Compound 181, N-(3-(4-methoxyphenyl)-4-methyl-1H-pyrazol-5-yl)-2-morpholinopyrimidin-4-amine] | 4480 nM | 2630 nM | – | – | –
8 | C[C@@H]1CN(c2nccc(Nc3cc(-c4ccc(C(C)(F)F)cc4)n[nH]3)n2)C[C@H](C)O1 [Compound 200, N-(3-(4-(1,1-difluoroethyl)phenyl)-1H-pyrazol-5-yl)-2-((2R,6S)-2,6-dimethylmorpholino)pyrimidin-4-amine] | 386 nM | 143 nM | – | – | –
9 | FC(F)Oc1ccc(-c2cc(Nc3ccnc(N4CCCCC4)n3)[nH]n2)cc1 [Compound 243, N-(3-(4-(difluoromethoxy)phenyl)-1H-pyrazol-5-yl)-2-(piperidin-1-yl)pyrimidin-4-amine] | 53 nM | 17 nM | – | – | –
10 | COc1ccc(-c2cc(Nc3ccnc(C4=CCOCC4)n3)[nH]n2)c(F)c1 [Compound 317, 2-(3,6-dihydro-2H-pyran-4-yl)-N-(3-(2-fluoro-4-methoxyphenyl)-1H-pyrazol-5-yl)pyrimidin-4-amine] | 24 nM | 12 nM | – | – | –
11 | CC1CN(c2nccc(Nc3cc(-c4ccc(OC(F)F)cc4)n[nH]3)n2)C1 [Compound 245, N-(3-(4-(difluoromethoxy)phenyl)-1H-pyrazol-5-yl)-2-(3-methylazetidin-1-yl)pyrimidin-4-amine] | ≥ 10000 nM | 47 nM | – | – | –
12 | C[C@H]1COCCN1c1nccc(Nc2cc(-c3ccc(OC(F)F)cc3)n[nH]2)n1 [Compound 263, (S)-N-(3-(4-(difluoromethoxy)phenyl)-1H-pyrazol-5-yl)-2-(3-methylmorpholino)pyrimidin-4-amine] | 79 nM | 30 nM | – | – | –
13 | COc1ccc(-c2cc(Nc3ccnc(N4CCCCCC4)n3)[nH]n2)c(F)c1 [Compound 167, 2-(azepan-1-yl)-N-(3-(2-fluoro-4-methoxyphenyl)-1H-pyrazol-5-yl)pyrimidin-4-amine] | 89 nM | 41 nM | – | – | –
14 | COc1ccc(-c2cc(Nc3ccnc(N4C[C@@H](C)O[C@@H](C)C4)n3)[nH]n2)cc1 [Compound 59b, 2-((2R,6S)-2,6-dimethylmorpholino)-N-(3-(4-methoxyphenyl)-1H-pyrazol-5-yl)pyrimidin-4-amine] | 3 nM | 17 nM | – | – | –
15 | COc1ccc(-c2cc(Nc3ccnc(N4C[C@H](C)O[C@@H](C)C4)n3)[nH]n2)c(F)c1 [Compound 150, 2-((2S,6S)-2,6-dimethylmorpholino)-N-(3-(2-fluoro-4-methoxyphenyl)-1H-pyrazol-5-yl)pyrimidin-4-amine] | 23 nM | 16 nM | – | – | –
16 | COc1ccc(-c2cc(Nc3ccnc(N4CCCC4C)n3)[nH]n2)c(F)c1 (stereo not drawn) [Compound 159, N-(3-(2-fluoro-4-methoxyphenyl)-1H-pyrazol-5-yl)-2-(2-methylpyrrolidin-1-yl)pyrimidin-4-amine] | 76 nM | 47 nM | – | – | –
17 | C[C@@H]1CN(c2nccc(Nc3cc(-c4ccc(C#N)cc4)n[nH]3)n2)C[C@H](C)O1 [Compound 191b, 4-(5-((2-((2R,6S)-2,6-dimethylmorpholino)pyrimidin-4-yl)amino)-1H-pyrazol-3-yl)benzonitrile] | 1520 nM | 1570 nM | – | – | –
18 | C[C@@H]1CN(c2nccc(Nc3cc(-c4ccc(OC(F)F)cc4)n[nH]3)n2)C[C@@H](C)O1 [Compound 240, N-(3-(4-(difluoromethoxy)phenyl)-1H-pyrazol-5-yl)-2-((2R,6R)-2,6-dimethylmorpholino)pyrimidin-4-amine] | 1060 nM | 103 nM | – | – | –
19 | COc1cc(F)c(-c2cc(Nc3ccnc(N4C[C@@H](C)O[C@@H](C)C4)n3)[nH]n2)cc1F [Compound 218, N-(3-(2,5-difluoro-4-methoxyphenyl)-1H-pyrazol-5-yl)-2-((2R,6S)-2,6-dimethylmorpholino)pyrimidin-4-amine] | 20 nM | 13 nM | – | – | –
20 | COc1ccc(-c2cc(Nc3ccnc(N4C5CCC4CC(C)C5)n3)[nH]n2)c(F)c1 (stereo not drawn) [Compound 145, N-(3-(2-fluoro-4-methoxyphenyl)-1H-pyrazol-5-yl)-2-(3-methyl-8-azabicyclo[3.2.1]octan-8-yl)pyrimidin-4-amine] | 279 nM | 101 nM | – | – | –
21 | FC(F)Oc1ccc(-c2cc(Nc3ccnc(N4CCCOCC4)n3)[nH]n2)cc1 [Compound 255, N-(3-(4-(difluoromethoxy)phenyl)-1H-pyrazol-5-yl)-2-(1,4-oxazepan-4-yl)pyrimidin-4-amine] | 312 nM | 279 nM | – | – | –
